Here are results for twelve compounds from patent US20260070945A1, “MACROCYCLIC IMMUNOMODULATORS” (Bristol-Myers Squibb Company, priority 2022, published 2026).

pIC50: −log10 of the molar value. *1 amine or outer side, *2 acyl side, *3 side chain or, on linkers, in order; H or OH if unused. Where a SMILES comes first, the peptide text is derived from it. Bridges are numbered along the chain shown (N, C = ends). [ ]: non-standard residue; d: D form. The star is where a group is joined. ξ: configuration not given here. Phe(3-CF3) = N[C@@H](Cc1cccc(C(F)(F)F)c1)C(=O)O; Phe(4-COOH) = N[C@@H](Cc1ccc(C(=O)O)cc1)C(=O)O; Bip = N[C@@H](Cc1ccc(-c2ccccc2)cc1)C(=O)O; Phe(3-Me) = Cc1cccc(C[C@H](N)C(=O)O)c1; NH(CH2)12COOH = O=C(O)CCCCCCCCCCCCN*; Val(3-OH) = CC(C)(O)[C@H](N)C(=O)O; X6 = O=C(Cc1ccc(CN[*:1])cc1)[*:2]; 4Pal = N[C@@H](Cc1ccncc1)C(=O)O; Cha = N[C@@H](CC1CCCCC1)C(=O)O; Thr(3ξ) = CC(O)[C@H](N)C(=O)O; 12Ado = NCCCCCCCCCCCC(=O)O; Carboxymethyl = O=C(O)C*; NMeA = CN[C@@H](C)C(=O)O; Orn = NCCC[C@H](N)C(=O)O; Aun = NCCCCCCCCCCC(=O)O; Dab = NCC[C@H](N)C(=O)O; Dap = NC[C@H](N)C(=O)O; AEEA = NCCOCCOCC(=O)O; Ac3c = NC1(C(=O)O)CC1; ξC = NC(CS)C(=O)O

T1 sequence (Q15116 25-288): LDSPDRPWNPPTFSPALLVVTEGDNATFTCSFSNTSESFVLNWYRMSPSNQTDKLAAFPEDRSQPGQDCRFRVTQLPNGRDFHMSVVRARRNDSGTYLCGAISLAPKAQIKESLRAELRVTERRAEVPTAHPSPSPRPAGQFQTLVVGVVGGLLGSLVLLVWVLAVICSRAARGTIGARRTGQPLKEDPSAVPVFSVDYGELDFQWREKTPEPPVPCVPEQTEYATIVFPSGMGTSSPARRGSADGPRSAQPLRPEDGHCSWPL

The first experiment has as its target T1, PD-1/PD-L1 interaction (PE-labeled human PD-L1-Ig binding to Jurkat cell line over-expressing human PD-1) (Homo sapiens, UniProt Q15116).
T1 construct: expressed in transfected cells; host or cells: Jurkat
Briefly: Jurkat-PD-1 Cell Binding High-Content Screening Assay (CBA). To be noted: Jurkat-hPD-1 cells, PE-labeled PD-L1-Ig 20 nM final; read-out: Jurkat HPD1 PDL1 IC50. A digest of the protocol: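 In this imaging assay, cells in 10% FCS medium see compound for 2 h at 37 °C and then labeled ligand at 20 nM final for 1 h. Paraformaldehyde fixation, Hoechst 33342 staining and dPBS washes precede image capture.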
`Cc1cccc(C[C@@H]2NC(=O)[C@H](CC(=O)O)NC(=O)[C@H](Cc3ccc(OCC(=O)O)cc3)NC(=O)[C@H]([C@@H](C)O)NC(=O)CSC[C@@H](C(=O)N[C@@H](CCN)C(=O)NCCOCCOCC(=O)NCCCCCCCCCCC(=O)O)NC(=O)[C@H](CCCN)NC(=O)[C@H](C(C)C)NC(=O)[C@H](CC3CCCCC3)NC(=O)[C@H](CCC(=O)O)NC(=O)[C@@H](CC(C)C)NC(=O)[C@H](C)N(C)C(=O)[C@H](Cc3ccc(OCC(=O)O)cc3)NC(=O)[C@H](Cc3ccc(-c4ccccc4)cc3)NC(=O)[C@H](Cc3ccc(OCC(=O)O)cc3)NC2=O)c1` [Example 1376] ({CH2CO}-TY(Carboxymethyl)D[Phe(3-Me)]Y(Carboxymethyl)[Bip]Y(Carboxymethyl)[NMeA][dL]E[Cha]V[Orn]C[Dab][AEEA][Aun]-OH; thioether N-14): the pIC50 was 7.34.
For `Cc1cccc(C[C@@H]2NC(=O)[C@H](CC(=O)O)NC(=O)[C@H](Cc3ccc(OCC(=O)O)cc3)NC(=O)[C@H]([C@@H](C)O)NC(=O)CSC[C@@H](C(=O)N[C@@H](CCN)C(=O)NCCOCCOCC(=O)NCCCCCCCCCCC(=O)O)NC(=O)[C@H](CCC(=O)O)NC(=O)[C@H](C(C)(C)O)NC(=O)[C@H](CC3CCCCC3)NC(=O)[C@H](CCN)NC(=O)[C@@H](CC(C)C)NC(=O)[C@H](C)N(C)C(=O)[C@H](Cc3ccc(OCC(=O)O)cc3)NC(=O)[C@H](Cc3ccc(-c4ccccc4)cc3)NC(=O)[C@H](Cc3ccc(OCC(=O)O)cc3)NC2=O)c1` [Example 1408] ({CH2CO}-TY(Carboxymethyl)D[Phe(3-Me)]Y(Carboxymethyl)[Bip]Y(Carboxymethyl)[NMeA][dL][Dab][Cha][Val(3-OH)]EC[Dab][AEEA][Aun]-OH; thioether N-14), the pIC50 is 7.54.
Consider `Cc1cccc(C[C@@H]2NC(=O)[C@H](CC(=O)O)NC(=O)[C@H](Cc3ccc(OCC(=O)O)cc3)NC(=O)[C@H](Cc3ccc(OCC(=O)O)cc3)NC(=O)CSC[C@@H](C(=O)NC3(C(=O)NCCOCCOCC(=O)NCCCCCCCCCCC(=O)O)CC3)NC(=O)[C@H](CCCNC(=N)N)NC(=O)[C@H](C(C)C)NC(=O)[C@H](CC3CCCCC3)NC(=O)[C@H](CCN)NC(=O)[C@@H](CC(C)C)NC(=O)[C@H](C)N(C)C(=O)[C@H](C(C)C)NC(=O)[C@H](Cc3ccc(-c4ccccc4)cc3)NC(=O)[C@H](CC(C)C)NC2=O)c1` [Example 1250] ({CH2CO}-Y(Carboxymethyl)Y(Carboxymethyl)D[Phe(3-Me)]L[Bip]V[NMeA][dL][Dab][Cha]VRC[Ac3c][AEEA][Aun]-OH; thioether N-14), for which the pIC50 is 8.55.
In the case of `CC(C)C[C@@H]1NC(=O)[C@H](Cc2c[nH]c3ccccc23)NC(=O)[C@H](CC(=O)O)NC(=O)[C@H](Cc2ccc(C(=O)O)cc2)NC(=O)[C@H](Cc2ccc(OCC(=O)O)cc2)NC(=O)CSC[C@@H](C(=O)N[C@@H](CCCCN)C(=O)NCCCCCCCCCCC(=O)O)NC(=O)[C@H](CN)NC(=O)[C@H](C(C)C)NC(=O)[C@H](CC2CCCCC2)NC(=O)[C@H](CCN)NC(=O)[C@@H](CC(C)C)NC(=O)[C@H](C)N(C)C(=O)[C@H](C(C)C)NC(=O)[C@H](Cc2ccc(-c3ccccc3)cc2)NC1=O` [Example 1348] ({CH2CO}-Y(Carboxymethyl)[Phe(4-COOH)]DWL[Bip]V[NMeA][dL][Dab][Cha]V[Dap]CK[Aun]-OH; thioether N-14), the pIC50 was 7.40.
Regarding `CC(C)C[C@H]1NC(=O)[C@H](C)N(C)C(=O)[C@H](Cc2ccc(OCC(=O)O)cc2)NC(=O)[C@H](Cc2ccc(-c3ccccc3)cc2)NC(=O)[C@H](Cc2ccc(C(=O)O)cc2)NC(=O)[C@H](Cc2cccc(C(F)(F)F)c2)NC(=O)[C@H](CC(=O)O)NC(=O)[C@H](Cc2ccc(OCC(=O)O)cc2)NC(=O)[C@H]([C@@H](C)O)NC(=O)CSC[C@@H](C(=O)N[C@@H](CCN)C(=O)NCCCCCCCCCCC(=O)O)NC(=O)[C@H]([C@@H](C)O)NC(=O)[C@H](C(C)C)NC(=O)[C@H](CC2CCCCC2)NC(=O)[C@H](CCN)NC1=O` [Example 1231] ({CH2CO}-TY(Carboxymethyl)D[Phe(3-CF3)][Phe(4-COOH)][Bip]Y(Carboxymethyl)[NMeA][dL][Dab][Cha]VTC[Dab][Aun]-OH; thioether N-14), the pIC50 was 7.52.
On to `CC(C)C[C@@H]1NC(=O)[C@H](Cc2c[nH]c3ccccc23)NC(=O)[C@H](CC(=O)O)NC(=O)[C@H](Cc2ccc(C(=O)O)cc2)NC(=O)[C@H](Cc2ccc(OCC(=O)O)cc2)NC(=O)CSC[C@@H](C(=O)N[C@@H](CCCN)C(=O)NCc2ccc(CC(=O)NCCCCCCCCCCC(=O)O)cc2)NC(=O)[C@H](CO)NC(=O)[C@H](C(C)C)NC(=O)[C@H](CC2CCCCC2)NC(=O)[C@H](CCN)NC(=O)[C@@H](CC(C)C)NC(=O)[C@H](C)N(C)C(=O)[C@H](C(C)C)NC(=O)[C@H](Cc2ccc(-c3ccccc3)cc2)NC1=O` [Example 1243] ({CH2CO}-Y(Carboxymethyl)[Phe(4-COOH)]DWL[Bip]V[NMeA][dL][Dab][Cha]VSC[Orn][X6][Aun]-OH; thioether N-14), for which the pIC50 was 7.55.
Turning to `Cc1cccc(C[C@@H]2NC(=O)[C@H](CC(=O)O)NC(=O)[C@H](Cc3ccc(OCC(=O)O)cc3)NC(=O)[C@H]([C@@H](C)O)NC(=O)CSC[C@@H](C(=O)N[C@@H](CCCN)C(=O)NCCOCCOCC(=O)NCCCCCCCCCCC(=O)O)NC(=O)[C@H](CCC(=O)O)NC(=O)[C@H](C(C)C)NC(=O)[C@H](CC3CCCCC3)NC(=O)[C@H](CCN)NC(=O)[C@@H](CC(C)C)NC(=O)[C@H](C)N(C)C(=O)[C@H](Cc3ccc(OCC(=O)O)cc3)NC(=O)[C@H](Cc3ccc(-c4ccccc4)cc3)NC(=O)[C@H](Cc3ccc(OCC(=O)O)cc3)NC2=O)c1` [Example 1373] ({CH2CO}-TY(Carboxymethyl)D[Phe(3-Me)]Y(Carboxymethyl)[Bip]Y(Carboxymethyl)[NMeA][dL][Dab][Cha]VEC[Orn][AEEA][Aun]-OH; thioether N-14), the pIC50 is 7.50.

The same experiment, now with this note: PE-labeled PD-L1-Ig 20 nM final, Jurkat-hPD-1 cells; read-out: Jurkat HPD1 PDL1 IC50.
Take `Cc1cccc(C[C@@H]2NC(=O)[C@H](CC(=O)O)NC(=O)[C@H](Cc3ccc(OCC(=O)O)cc3)NC(=O)[C@H]([C@@H](C)O)NC(=O)CSC[C@@H](C(=O)N[C@@H](CCN)C(=O)NCCOCCOCC(=O)NCCCCCCCCCCCC(=O)O)NC(=O)[C@@H](C)NC(=O)[C@H](C(C)C)NC(=O)[C@H](CC3CCCCC3)NC(=O)[C@H](CCN)NC(=O)[C@@H](CC(C)C)NC(=O)[C@H](C)N(C)C(=O)[C@H](Cc3ccc(OCC(=O)O)cc3)NC(=O)[C@H](Cc3ccc(-c4ccccc4)cc3)NC(=O)[C@H](Cc3ccc(OCC(=O)O)cc3)NC2=O)c1` [Example 2670] ({CH2CO}-TY(Carboxymethyl)D[Phe(3-Me)]Y(Carboxymethyl)[Bip]Y(Carboxymethyl)[NMeA][dL][Dab][Cha]V[dA]C[Dab][AEEA][12Ado]-OH; thioether N-14): the pIC50 was 8.18.
As for `Cc1cccc(C[C@@H]2NC(=O)[C@H](CC(=O)O)NC(=O)[C@H](Cc3ccc(C(=O)O)cc3)NC(=O)[C@H](C(C)O)NC(=O)CSC[C@@H](C(=O)N[C@@H](CCN)C(=O)NCCOCCOCC(=O)NCCOCCOCC(=O)NCCCCCCCCCCC(=O)O)NC(=O)[C@H](CCC(=O)O)NC(=O)[C@H](C(C)O)NC(=O)[C@H](CC3CCCCC3)NC(=O)[C@H](CCN)NC(=O)[C@@H](CC(C)C)NC(=O)[C@H](C)N(C)C(=O)[C@H](Cc3ccc(C(=O)O)cc3)NC(=O)[C@H](Cc3ccc(-c4ccccc4)cc3)NC(=O)[C@H](Cc3ccc(C(=O)O)cc3)NC2=O)c1` (stereo partly drawn) [Example 2528] ({CH2CO}-[Thr(3ξ)][Phe(4-COOH)]D[Phe(3-Me)][Phe(4-COOH)][Bip][Phe(4-COOH)][NMeA][dL][Dab][Cha][Thr(3ξ)]EC[Dab][AEEA][AEEA][Aun]-OH; thioether N-14), the pIC50 is 8.07.
As to `Cc1cccc(C[C@@H]2NC(=O)[C@H](CC(=O)O)NC(=O)[C@H](Cc3ccc(C(=O)O)cc3)NC(=O)[C@H](C(C)O)NC(=O)CSCC(C(=O)N[C@@H](CCN)C(=O)NCCCCCCCCCCCCC(=O)O)NC(=O)[C@H](CO)NC(=O)[C@H](C(C)(C)O)NC(=O)[C@H](CC3CCCCC3)NC(=O)[C@H](CCN)NC(=O)[C@@H](CC(C)C)NC(=O)[C@H](C)N(C)C(=O)[C@H](CCCNC(=N)N)NC(=O)[C@H](Cc3ccc(-c4ccccc4)cc3)NC(=O)[C@H](Cc3ccc(O)cc3)NC2=O)c1` (stereo partly drawn) [Example 2643] ({CH2CO}-[Thr(3ξ)][Phe(4-COOH)]D[Phe(3-Me)]Y[Bip]R[NMeA][dL][Dab][Cha][Val(3-OH)]S[ξC][Dab]-{NH(CH2)12COOH}; thioether N-14), the pIC50 was 7.40.
On to `Cc1cccc(C[C@@H]2NC(=O)[C@H](CC(=O)O)NC(=O)[C@H](Cc3ccc(C(=O)O)cc3)NC(=O)[C@H](Cc3ccncc3)NC(=O)CSC[C@@H](C(=O)N[C@@H](CCCN)C(=O)NCCOCCOCC(=O)NCCCCCCCCCCC(=O)O)NC(=O)[C@H](CCC(=O)O)NC(=O)[C@H](C(C)(C)O)NC(=O)[C@H](CC3CCCCC3)NC(=O)[C@H](Cc3cnc[nH]3)NC(=O)[C@@H](CC(C)C)NC(=O)[C@H](C)N(C)C(=O)[C@H](Cc3ccc(C(=O)O)cc3)NC(=O)[C@H](Cc3ccc(-c4ccccc4)cc3)NC(=O)[C@H](Cc3ccc(C(=O)O)cc3)NC2=O)c1` [Example 2498] ({CH2CO}-[4Pal][Phe(4-COOH)]D[Phe(3-Me)][Phe(4-COOH)][Bip][Phe(4-COOH)][NMeA][dL]H[Cha][Val(3-OH)]EC[Orn][AEEA][Aun]-OH; thioether N-14), for which the pIC50 was 7.44.
Take `Cc1cccc(C[C@@H]2NC(=O)[C@H](CC(=O)O)NC(=O)[C@H](Cc3ccc(OCC(=O)O)cc3)NC(=O)[C@H](CCN)NC(=O)CSC[C@@H](C(=O)N[C@@H](CCN)C(=O)NCCOCCOCC(=O)NCCCCCCCCCCC(=O)O)NC(=O)[C@H](Cc3cnc[nH]3)NC(=O)[C@H](C(C)(C)O)NC(=O)[C@H](CC3CCCCC3)NC(=O)[C@H](CCN)NC(=O)[C@@H](CC(C)C)NC(=O)[C@H](C)N(C)C(=O)[C@H](Cc3ccc(OCC(=O)O)cc3)NC(=O)[C@H](Cc3ccc(-c4ccccc4)cc3)NC(=O)[C@H](Cc3ccc(OCC(=O)O)cc3)NC2=O)c1` [Example 2551] ({CH2CO}-[Dab]Y(Carboxymethyl)D[Phe(3-Me)]Y(Carboxymethyl)[Bip]Y(Carboxymethyl)[NMeA][dL][Dab][Cha][Val(3-OH)]HC[Dab][AEEA][Aun]-OH; thioether N-14): the pIC50 is 7.76.

By pIC50 is commonly meant −log10 of the IC50, conventionally taken in molar units.
